Experimental data published in ChEMBL document CHEMBL1201862, “PubChem BioAssay data set” (2004).
Active and inactive are the calls of the source.

Tests used:
HEK293 [1] = assay: cells; format: functional, cell-based; details: Homo sapiens
[2] = molecular target: T1, Nuclear receptor subfamily 0 group B member 1 (Homo sapiens, UniProt P51843); assay: Luminescence-based cell-based high throughput dose response assay for inhibitors of the orphan nuclear receptor subfamily 0, group B, member 1 (DAX1; NR0B1). [Related pubchem assays (depositor defined):AID504766, AID504790]; format: functional
T1 sequence (P51843 whole entry): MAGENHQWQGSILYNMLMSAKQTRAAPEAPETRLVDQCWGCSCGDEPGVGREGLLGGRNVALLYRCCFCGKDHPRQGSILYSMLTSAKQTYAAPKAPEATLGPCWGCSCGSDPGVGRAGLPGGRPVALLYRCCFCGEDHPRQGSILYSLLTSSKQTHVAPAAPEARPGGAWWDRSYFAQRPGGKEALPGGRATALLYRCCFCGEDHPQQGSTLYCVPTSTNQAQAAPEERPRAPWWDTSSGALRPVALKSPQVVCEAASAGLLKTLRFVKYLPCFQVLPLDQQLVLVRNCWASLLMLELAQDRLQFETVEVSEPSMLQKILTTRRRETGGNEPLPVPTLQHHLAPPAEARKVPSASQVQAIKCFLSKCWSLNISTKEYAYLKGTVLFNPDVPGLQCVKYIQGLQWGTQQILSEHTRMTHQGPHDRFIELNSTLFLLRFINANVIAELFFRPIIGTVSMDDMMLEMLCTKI

[3] = molecular target: Disintegrin and metalloproteinase domain-containing protein 17 (Homo sapiens, UniProt P78536); assay: exosite inhibitors of ADAM17, dose response, biochemical (AID 743260)
[4] = ADAM10 protease inhibitors, dose response, selectivity assay for ADAM17 exosite inhibitor project, biochemical, FRET peptide substrate, recombinant human ADAM10 (AID 743259);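 further: ADAM10 enzyme cleaving a FRET peptide substrate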
CHO-K1 = assay: (§1) Counterscreen for antagonists of the orexin 1 receptor (OX1R; HCRTR1): Homogeneous time resolved fluorescence (HTRF)-based cell-based dose response assay to identify antagonists of the parental CHO-K1 cell line. [Related pubchem assays (depositor defined):AID434989, AID435008, AID463079, AID485270, AID492963, AID492964, AID492965, AID493232, AID504699, AID504701]; format: functional; details: Cricetulus griseus
[5] = as §1, with “Fluorescence-based” for “Homogeneous time resolved fluorescence (HTRF)-based”, “cell-based high throughput” for “cell-based”, “CHO” for “CHO-K1”; format: functional
[6] = molecular target: T2, Orexin/Hypocretin receptor type 1 (Homo sapiens, UniProt O43613); assay: Homogeneous Time Resolved Fluorescence (HTRF)-based cell-based high throughput dose response assay for antagonists of the orexin 1 receptor (OX1R; HCRTR1). [Related pubchem assays (depositor defined):AID434989, AID435008, AID463079, AID485270, AID492963, AID492964, AID492965, AID493232, AID504717, AID504718]; format: functional
T2 sequence (O43613 whole entry): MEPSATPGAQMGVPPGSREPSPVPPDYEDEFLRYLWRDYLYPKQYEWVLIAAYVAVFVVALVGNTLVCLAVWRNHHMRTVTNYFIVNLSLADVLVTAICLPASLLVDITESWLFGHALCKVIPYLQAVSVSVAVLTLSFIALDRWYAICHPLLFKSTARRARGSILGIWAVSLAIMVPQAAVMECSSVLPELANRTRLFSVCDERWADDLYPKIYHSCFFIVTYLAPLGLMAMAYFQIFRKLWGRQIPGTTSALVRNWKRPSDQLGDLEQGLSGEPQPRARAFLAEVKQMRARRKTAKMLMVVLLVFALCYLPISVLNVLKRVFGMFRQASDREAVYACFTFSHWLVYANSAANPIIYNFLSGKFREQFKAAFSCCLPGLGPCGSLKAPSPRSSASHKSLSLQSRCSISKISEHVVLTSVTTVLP

[7] = molecular target: T2, Orexin/Hypocretin receptor type 1; assay: Fluorescence-based cell-based high throughput dose response assay for antagonists of the orexin 1 receptor (OX1R; HCRTR1). [Related pubchem assays (depositor defined):AID434989, AID435008, AID463079, AID485270, AID492963, AID492964, AID492965, AID493232, AID504717, AID504718]; format: functional
Orexin receptor type 2 [8] = molecular target: T3, Orexin receptor type 2 (Homo sapiens, UniProt O43614); assay: Counterscreen assay for antagonists of the orexin 1 receptor (OX1R; HCRTR1): Fluorescence-based cell-based dose response assay for antagonists of the orexin 2 receptor (OX2R; HCRTR2), run by assay provider.; format: functional
T3 sequence (O43614 whole entry): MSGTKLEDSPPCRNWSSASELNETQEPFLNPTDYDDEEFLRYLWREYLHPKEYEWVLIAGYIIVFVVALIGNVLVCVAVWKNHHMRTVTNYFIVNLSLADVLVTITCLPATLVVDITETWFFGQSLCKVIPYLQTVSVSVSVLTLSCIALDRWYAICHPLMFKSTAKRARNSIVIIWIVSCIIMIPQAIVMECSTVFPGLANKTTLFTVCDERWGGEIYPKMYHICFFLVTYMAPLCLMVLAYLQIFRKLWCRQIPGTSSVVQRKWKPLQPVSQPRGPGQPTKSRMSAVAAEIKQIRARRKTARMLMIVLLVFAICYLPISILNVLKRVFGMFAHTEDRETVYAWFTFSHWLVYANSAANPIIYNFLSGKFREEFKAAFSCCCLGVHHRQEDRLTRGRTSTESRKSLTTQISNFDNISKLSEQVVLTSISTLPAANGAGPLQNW

Orexin receptor type 2 [9] = molecular target: T3, Orexin receptor type 2; assay: Counterscreen assay for antagonists of the orexin 1 receptor (OX1R; HCRTR1): Homogeneous Time Resolved Fluorescence (HTRF)-based cell-based dose response assay for antagonists of the orexin 2 receptor (OX2R; HCRTR2), run by assay provider.; format: functional
Kallikrein-7 = Kallikrein-7 (Homo sapiens, UniProt P49862); assay: Fluorescence Intensity-based biochemical primary high throughput dose response assay to identify activators of kallikrein-7 (K7) zymogen.
cells [10] = assay: cells
cells [11] = details: HEK293
Major prion protein = Major prion protein (Homo sapiens, UniProt P04156); format: functional, cell-based
cells [12] = assay: cells; remark: listed apart in the source
[13] = Shn3 3'UTR reporter inhibitors, dose response, cell-based, Clone20 osteoblasts, firefly luciferase, cherry-picked (AID 624132); format: functional;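 further: firefly luciferase luminescence from reporter carrying the Shn3 3'UTR in osteoblasts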
[14] = control 3'UTR Renilla luciferase suppression, dose response, counter-screen for Shn3 inhibitor project, cell-based, Clone20-Shn3RL, cherry-picked (AID 624133); format: functional
[15] = reduction of Shn3 3'UTR firefly luciferase signal, dose response, Schnurri-3 inhibitor project, cell-based, Clone20 osteoblasts, cherry-pick, set 2 (AID 720490); format: functional;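 further: actives lower the luminescence signal as inhibitors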
[16] = inhibitors of control Renilla luciferase reporter, dose response, counter-screen for Shn3 3'UTR targeting project, Clone20-Shn3RL cells, dual-Glo, cherry-pick, set 2 (AID 720724); format: functional, cell-based; details: Dual-Go Shn3RL
HeLa = assay: HeLa cell cytotoxicity, dose response, cytotoxicity control, ATP luminescence, cherry-pick samples (AID 687004); format: functional, cell-based; details: Homo sapiens
HEK293 [17] = assay: HEK293T cell cytotoxicity, dose response, cytotoxicity control, ATP luminescence, cherry-pick samples (AID 687005); format: functional, cell-based; details: Homo sapiens;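 further: cells exposed to compound for 48 hours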
[18] = HEK293 Cytotoxicity Assay Measured in Cell-Based System Using Plate Reader - 7071-01_Inhibitor_Dose_CherryPick_Activity_Set2.; format: functional
[19] = P. falciparum 3D7-ScDHODH growth inhibitors, dose response, SYBR Green, dry powder samples (AID 1159570); format: functional, cell-based;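 further: parasite growth measured after 72 hours of compound exposure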
[20] = HepG2 cell cytotoxicity, dose response, cytotoxicity control, plate reader, dry powder samples (AID 1159569); format: functional, cell-based;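 further: inhibitor potency with signal falling toward the positive control level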
[21] = P. falciparum Dd2 growth inhibitors, dose response, SYBR Green, cherry-picked samples (AID 1159567); format: functional, cell-based
[22] = P. falciparum Dd2 growth inhibitors, dose response, SYBR Green, dry powder samples (AID 1159566); format: functional, cell-based;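 further: potency for growth inhibition with lower SYBR green DNA signal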
[23] = HepG2 cell cytotoxicity, dose response, cytotoxicity control, cherry-picked samples (AID 1159577); format: functional, cell-based
[24] = P. falciparum ATP4 D1247Y mutant growth inhibitors, dose response, NITD609-resistant line, SYBR Green, dry powder (AID 1159571); format: functional, cell-based;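 further: parasites synchronized at ring stage by sorbitol before testing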

**Q.** For COCCOc1ccc(C(F)(F)F)cc1NC(=O)CN1C(=O)NC(C)(c2ccc3c(c2)OCO3)C1=O (stereo not drawn), which IC50 (HEK293 [1]) is on record?
**A.** Its IC50 is > 67.5 µM (inactive).

**Q.** What about the IC50 [2] of the same compound?
**A.** The IC50 was > 67.5 µM (inactive).

**Q.** And the IC50 [3]?
**A.** Its IC50 is > 69.5 µM (inactive).

**Q.** What about the IC50 [4] of the same compound?
**A.** The IC50 was 27.7 µM (inactive).

**Q.** What does the source list for O=C(OC1CCOC1=O)c1ccc(-c2nc3ccccc3s2)s1 (stereo not drawn)?
**A.** IC50 (CHO-K1): 29.9 µM (inactive); IC50 [5]: > 49.8 µM (inactive); IC50 [6]: 1.98 µM (active); IC50 [7]: 9.49 µM (active); IC50 (Orexin receptor type 2 [8]): > 88.8 µM (inactive); IC50 (Orexin receptor type 2 [9]): 11.4 µM (inactive); EC50 (Kallikrein-7): > 69.5 µM (inactive)

**Q.** For CC(C)OCCCn1c(=N)c(C(N)=S)cc2c(=O)n3ccccc3nc21, which AC50 (cells [10]) is on record?
**A.** The AC50 was 0.61 µM (active).

**Q.** Which AC50 (cells [11]) does the source give for Cc1ccc2c(c1)-c1c(cnn1CC(=O)Nc1ccccc1N1CCN(C)CC1)CO2 here?
**A.** The AC50 was 47.1 µM (active).

**Q.** Which IC50 (Major prion protein) does the source give for O=C(O)c1ccccc1C(=O)c1cccc2c(Br)cccc12 here?
**A.** The IC50 was 1.57 µM (active).

**Q.** And the IC50 (cells [12])?
**A.** Its IC50 is > 138 µM (inactive).

**Q.** For COC(=O)C1=C(c2ccc(OCc3ccccc3)cc2)C[C@@H]2CC[C@H]1N2C(=O)NCCCCc1ccccc1, which AC50 [13] is on record?
**A.** Its AC50 is 2.8 µM (active).

**Q.** What about the AC50 [14] of the same compound?
**A.** The AC50 was 25.6 µM (active).

**Q.** What about the AC50 [15] of the same compound?
**A.** Its AC50 is 10.3 µM (active).

**Q.** And the AC50 [16]?
**A.** The AC50 was 35.9 µM (active).

**Q.** Which results are given for C[C@@H]1CN([C@@H](C)CO)C(=O)c2c(c3ccccc3n2C)-c2ccccc2CO[C@@H]1CN(C)S(=O)(=O)c1ccc(Cl)cc1?
**A.** AC50 (HeLa): 49.1 µM (active); AC50 (HEK293 [17]): 25.3 µM (active); AC50 [18]: 25.3 µM (active); AC50 [19]: 3.95 µM (active); AC50 [20]: 39.2 µM (active); AC50 [21]: 2.33 µM (active); AC50 [22]: 1.97 µM (active); AC50 [23]: > 39 µM (inactive); AC50 [24]: 3.4 µM (active)
